Assay results taken from ChEMBL document CHEMBL4316626, “N-Acyl pyrazoles: Effective and tunable inhibitors of serine hydrolases” (Bioorg Med Chem, 2019).
Active and inactive are the calls of the source. The calls are words filed in the database; no cut-off is given here.

What was measured:
[1] = Inhibition of recombinant rat FAAH deltaTM mutant expressed in Escherichia coli using 14C-labeled oleamide as substrate preincubated for 3 hrs followed by substrate addition and measured by TLC based Dixon-plot analysis; conditions: read-out: Ki(app)
[2] = molecular target: T1, Fatty-acid amide hydrolase 1 (Mus musculus, UniProt O08914); assay: Inhibition of FP-rhodamine probe binding to FAAH in mouse brain membrane proteome preincubated for 1 hr followed by FP-rhodamine addition and measured after 30 mins by SDS-PAGE based fluorescence assay; format: cell membranes
T1 sequence (O08914 whole entry): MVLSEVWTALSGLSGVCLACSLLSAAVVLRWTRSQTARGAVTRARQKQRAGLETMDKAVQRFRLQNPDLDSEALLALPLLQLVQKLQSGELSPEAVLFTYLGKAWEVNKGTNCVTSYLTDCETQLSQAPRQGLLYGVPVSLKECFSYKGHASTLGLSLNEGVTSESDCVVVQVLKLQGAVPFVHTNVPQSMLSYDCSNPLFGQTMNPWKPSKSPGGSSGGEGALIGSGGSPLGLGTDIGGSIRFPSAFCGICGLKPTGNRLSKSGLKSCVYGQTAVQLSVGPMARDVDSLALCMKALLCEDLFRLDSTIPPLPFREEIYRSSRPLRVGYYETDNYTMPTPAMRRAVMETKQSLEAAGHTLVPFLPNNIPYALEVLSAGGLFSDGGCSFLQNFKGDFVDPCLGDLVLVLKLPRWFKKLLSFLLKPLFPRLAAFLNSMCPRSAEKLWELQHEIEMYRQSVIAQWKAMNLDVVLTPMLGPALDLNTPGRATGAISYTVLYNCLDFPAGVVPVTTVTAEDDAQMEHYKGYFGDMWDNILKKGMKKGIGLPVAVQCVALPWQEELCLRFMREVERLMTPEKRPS

Monoglyceride lipase = molecular target: T2, Monoglyceride lipase (Mus musculus, UniProt O35678); assay: Inhibition of FP-rhodamine probe binding to MGLL in mouse brain membrane proteome preincubated for 1 hr followed by FP-rhodamine addition and measured after 30 mins by SDS-PAGE based fluorescence assay; format: cell membranes
T2 sequence (O35678 whole entry): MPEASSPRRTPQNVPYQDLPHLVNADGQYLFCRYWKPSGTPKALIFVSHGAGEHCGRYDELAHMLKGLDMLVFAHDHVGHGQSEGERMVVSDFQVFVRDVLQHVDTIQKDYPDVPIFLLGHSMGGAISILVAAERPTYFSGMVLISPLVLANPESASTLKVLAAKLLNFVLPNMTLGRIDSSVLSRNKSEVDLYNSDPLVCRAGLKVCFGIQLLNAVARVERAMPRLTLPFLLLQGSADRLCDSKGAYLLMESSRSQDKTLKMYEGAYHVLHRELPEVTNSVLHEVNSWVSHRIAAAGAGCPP

[3] = molecular target: T3, Monoacylglycerol lipase ABHD6 (Mus musculus, UniProt Q8R2Y0); assay: Inhibition of FP-rhodamine probe binding to ABHD6 in mouse brain membrane proteome preincubated for 1 hr followed by FP-rhodamine addition and measured after 30 mins by SDS-PAGE based fluorescence assay; format: cell membranes
T3 sequence (Q8R2Y0 whole entry): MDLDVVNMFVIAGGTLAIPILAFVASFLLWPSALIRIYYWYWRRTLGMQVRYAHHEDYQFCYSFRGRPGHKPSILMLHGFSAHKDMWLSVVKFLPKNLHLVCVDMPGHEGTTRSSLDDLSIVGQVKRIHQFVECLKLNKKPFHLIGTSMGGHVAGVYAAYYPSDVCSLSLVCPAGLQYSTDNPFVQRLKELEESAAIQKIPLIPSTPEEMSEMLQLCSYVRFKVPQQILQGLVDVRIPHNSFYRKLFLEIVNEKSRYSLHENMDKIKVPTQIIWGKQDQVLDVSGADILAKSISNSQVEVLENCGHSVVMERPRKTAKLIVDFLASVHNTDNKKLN

[4] = molecular target: T4, Neutral cholesterol ester hydrolase 1 (Mus musculus, UniProt Q8BLF1); assay: Inhibition of FP-rhodamine probe binding to KIAA1363 in mouse brain membrane proteome preincubated for 1 hr followed by FP-rhodamine addition and measured after 30 mins by SDS-PAGE based fluorescence assay; format: cell membranes
T4 sequence (Q8BLF1 whole entry): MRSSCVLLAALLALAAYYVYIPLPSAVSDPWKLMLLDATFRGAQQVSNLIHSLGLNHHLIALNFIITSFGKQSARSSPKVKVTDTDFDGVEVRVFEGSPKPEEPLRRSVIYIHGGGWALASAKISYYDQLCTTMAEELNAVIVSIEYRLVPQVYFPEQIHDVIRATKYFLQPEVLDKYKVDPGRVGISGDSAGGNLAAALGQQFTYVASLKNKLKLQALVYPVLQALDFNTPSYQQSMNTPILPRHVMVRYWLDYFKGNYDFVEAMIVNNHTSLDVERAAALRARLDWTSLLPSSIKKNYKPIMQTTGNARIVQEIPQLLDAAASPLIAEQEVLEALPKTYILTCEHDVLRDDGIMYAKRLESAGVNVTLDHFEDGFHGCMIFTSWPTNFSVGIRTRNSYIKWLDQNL

Rattus norvegicus [5] = species: Rattus norvegicus; assay: Time-dependent irreversible inhibition of recombinant rat FAAH deltaTM mutant expressed in Escherichia coli using 14C-labeled oleamide as substrate by TLC method
Rattus norvegicus [6] = species: Rattus norvegicus; assay: Inhibition of recombinant rat FAAH deltaTM mutant expressed in Escherichia coli at 100 nM using 14C-labeled oleamide as substrate preincubated for 3 hrs by TLC method relative to control
Rattus norvegicus [7] = species: Rattus norvegicus; assay: Irreversible inhibition of recombinant rat FAAH deltaTM mutant expressed in Escherichia coli at 100 nM using 14C-labeled oleamide as substrate preincubated for 3 hrs followed by dialysis for 18 hrs
Mus musculus = species: Mus musculus; assay: Selectivity ratio of IC50 for inhibition of FP-rhodamine probe binding to ABHD6 in mouse brain membrane proteome to IC50 for inhibition of FP-rhodamine probe binding to MGLL in mouse brain membrane proteome; format: cell membranes
Rattus norvegicus [8] = species: Rattus norvegicus; assay: Inhibition of recombinant rat FAAH deltaTM mutant expressed in Escherichia coli at 50 nM using 14C-labeled oleamide as substrate preincubated for 3 hrs by TLC method relative to control
Rattus norvegicus [9] = species: Rattus norvegicus; assay: Irreversible inhibition of recombinant rat FAAH deltaTM mutant expressed in Escherichia coli at 50 nM using 14C-labeled oleamide as substrate preincubated for 3 hrs followed by dialysis for 18 hrs
Rattus norvegicus [10] = species: Rattus norvegicus; assay: Inhibition of recombinant rat FAAH deltaTM mutant expressed in Escherichia coli at 10 nM using 14C-labeled oleamide as substrate preincubated for 3 hrs by TLC method relative to control
Rattus norvegicus [11] = species: Rattus norvegicus; assay: Irreversible inhibition of recombinant rat FAAH deltaTM mutant expressed in Escherichia coli at 10 nM using 14C-labeled oleamide as substrate preincubated for 3 hrs followed by dialysis for 18 hrs

| Structure (SMILES) | IC50 [2] | IC50 (Monoglyceride lipase) | IC50 [3] | IC50 [4] | TDI (Rattus norvegicus [5]) | inhibition (Rattus norvegicus [6]) | inhibition (Rattus norvegicus [7]) | Ratio IC50 (Mus musculus) | inhibition (Rattus norvegicus [8]) | inhibition (Rattus norvegicus [9]) | inhibition (Rattus norvegicus [10]) | inhibition (Rattus norvegicus [11]) | Ki [1] |
| --- | --- | --- | --- | --- | --- | --- | --- | --- | --- | --- | --- | --- | --- |
| Cc1cnn(C(=O)N2CCN(Cc3ccc(OCc4ccccc4)cc3)CC2)c1 | 650 nM | 200 nM | 10 nM | > 100000 nM | Active | > 70% | Active | – | – | – | – | – | 100 nM |
| Cc1cnn(C(=O)N2CCN(Cc3ccc4ccccc4c3)CC2)c1 | 960 nM | 920 nM | 10 nM | > 100000 nM | – | > 70% | Active | – | – | – | – | – | 130 nM |
| O=C(N1CCN(Cc2ccc3ccccc3c2)CC1)n1cccn1 | 90 nM | 960 nM | 10 nM | > 100000 nM | – | – | – | – | > 70% | Active | – | – | 9.8 nM |
| N#Cc1cnn(C(=O)N2CCN(Cc3ccc(OCc4ccccc4)cc3)CC2)c1 | < 10 nM | < 10 nM | < 10 nM | > 100000 nM | Active | – | – | – | – | – | > 70% | Active | 0.16 nM |
| CN(CCN(C)C(=O)n1cc(C#N)cn1)Cc1ccc(OCc2ccccc2)cc1 | 120 nM | 260 nM | 320 nM | > 100000 nM | – | – | – | – | – | – | – | – | 3 nM |
| O=C(N1CCN(Cc2ccc(OCc3ccccc3)cc2)CC1)n1cccn1 | 60 nM | 450 nM | 220 nM | > 100000 nM | Active | – | – | – | > 70% | Active | – | – | 10 nM |
| N#Cc1cnn(C(=O)N2CCCCC2)c1 | < 10 nM | 120 nM | 60 nM | > 100000 nM | – | – | – | – | – | – | – | – | 80 nM |
| CN(CCN(C)C(=O)n1cccn1)Cc1ccc(OCc2ccccc2)cc1 | 510 nM | 660 nM | 530 nM | > 100000 nM | – | – | – | – | – | – | – | – | 13 nM |

The next lines start with results.

| IC50 [2] | IC50 (Monoglyceride lipase) | IC50 [3] | IC50 [4] | TDI (Rattus norvegicus [5]) | inhibition (Rattus norvegicus [6]) | inhibition (Rattus norvegicus [7]) | Ratio IC50 (Mus musculus) | inhibition (Rattus norvegicus [8]) | inhibition (Rattus norvegicus [9]) | inhibition (Rattus norvegicus [10]) | inhibition (Rattus norvegicus [11]) | Structure (SMILES) | Ki [1] |
| --- | --- | --- | --- | --- | --- | --- | --- | --- | --- | --- | --- | --- | --- |
| 790000 nM | 20 nM | 130000 nM | > 100000 nM | – | – | – | > 1000 | – | – | – | – | N#Cc1cnn(C(=O)N2CCN(C(c3ccc(OCc4ccccc4)cc3)c3ccc(OCc4ccccc4)cc3)CC2)c1 | 25000 nM |
| > 100000 nM | 8 nM | 560 nM | > 100000 nM | – | – | – | 70 | – | – | – | – | N#Cc1cnn(C(=O)N2CCN(C(c3ccc4ccccc4c3)c3ccc4ccccc4c3)CC2)c1 | – |
| < 10 nM | 55 nM | < 10 nM | > 100000 nM | – | – | – | – | – | – | > 70% | Active | N#Cc1cnn(C(=O)N2CCN(Cc3ccc4ccccc4c3)CC2)c1 | 0.16 nM |
